Source: ChEMBL document CHEMBL1201862, “PubChem BioAssay data set” (2004)
Activity calls are given as the source filed them.

Tests used:
[1] = target: Diphosphomevalonate decarboxylase (Streptococcus pneumoniae serotype 2 (strain D39 / NCTC 7466), UniProt Q9FD53); assay: diphosphomevalonate decarboxylase inhibitor confirmation – biochemical, cuvette format, coupled NADH fluorescence (AID 1028); format: functional
Vero [2] = assay: inhibition of WNV-induced cytopathic effect – cell-based, CPE readout (AID 1621); format: functional; conditions: Chlorocebus sabaeus
[3] = NIH-3T3 fibroblast cytotoxicity, dose response, cytotoxicity control, cell-based, fluorescence, Alamar Blue, secondary assay (AID 2327); format: functional;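 further: NIH-3T3 mouse fibroblasts cultured with fluconazole at 8 µg/mL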
[4] = Luminescence Cell-Based Dose Response to Identify Activators of 5'UTR Stem-Loop Driven Prion Protein mRNA Translation in H4-C Neuroglioblastoma Cells. [Related pubchem assays: 1829 (Project Summary), 1814 (Primary HTS)]; format: functional
[5] = Luminescence Cell-Based Dose Response HTS to Identify Activators of Luciferase Translation or Activity in H4 […] Cells. [Related pubchem assays: 1829 (Project Summary), 1814 (Primary HTS)]; format: functional
H4 = assay: Luminescence Cell-Based Dose Response HTS to Identify Activators of 5'UTR Stem-Loop Driven Prion Protein mRNA Translation in H4 Neuroglioblastoma Cells. [Related pubchem assays: 1829 (Project Summary), 1814 (Primary HTS)]; format: functional; conditions: Homo sapiens
[6] = fluconazole-exposed Candida albicans growth modulators – fluorescence, retest, confirmation (AID 2467); format: functional, cell-based
[7] = Luminescence Cell-Based Dose Response to Identify Activators of Luciferase Translation or Activity in H4-C Neuroglioblastoma Cells. [Related pubchem assays: 1829 (Project Summary), 1814 (Primary HTS)]; format: functional
[8] = Luminescence Cell-Based Dose Confirmation to Identify Activators of 5'UTR Stem-Loop Driven Alpha-Synuclein mRNA Translation in H4 Neuroglioblastoma Cells. [Related pubchem assays: 1829 (Project Summary), 1814 (Primary HTS)]; format: functional
Vero [9] = assay: viability of Vero cells under compound – cytotoxicity control for flavivirus capping enzyme inhibitors (AID 588742); format: functional; conditions: Chlorocebus sabaeus
[10] = target: T1, RNA-binding protein pos-1 (Caenorhabditis elegans, UniProt G5EF15); assay: disruptors of C. elegans POS-1 RNA interaction – biochemical, fluorescence polarization, dose response (AID 1964);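 further: purified POS-1 fused to maltose binding protein made in E. coli; potency of compounds blocking POS-1 binding to fluorescent RNA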
T1 sequence (G5EF15 whole entry): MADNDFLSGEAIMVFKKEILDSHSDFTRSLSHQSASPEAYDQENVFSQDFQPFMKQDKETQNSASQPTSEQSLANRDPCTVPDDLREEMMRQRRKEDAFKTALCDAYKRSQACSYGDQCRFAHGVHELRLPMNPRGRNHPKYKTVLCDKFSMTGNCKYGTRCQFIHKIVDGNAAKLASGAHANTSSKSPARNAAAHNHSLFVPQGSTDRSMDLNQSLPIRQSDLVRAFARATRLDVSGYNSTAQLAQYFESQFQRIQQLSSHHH

[11] = target: Peroxisome proliferator-activated receptor gamma/Nuclear receptor coactivator 1 (Homo sapiens, UniProt P37231); assay: TR-FRET dose response biochemical High Throughput Screening assay for agonists of the steroid receptor coactivator 1 (SRC-1) recruitment by the peroxisome proliferator-activated receptor gamma (PPAR gamma): non-selective agonists. [Related pubchem assays (depositor defined):AID1300, AID1808, AID504735, AID631]; format: protein assay
[12] = target: Peroxisome proliferator-activated receptor gamma/Nuclear receptor coactivator 3 (Homo sapiens, UniProt P37231); assay: TR-FRET dose response biochemical High Throughput Screening assay for agonists of the steroid receptor coactivator 3 (SRC-3) recruitment by the peroxisome proliferator-activated receptor gamma (PPAR gamma): non-selective agonists. [Related pubchem assays: 1301 (Confirmation screen.), 1048 (Primary screen.)]; format: functional
Chain of Peroxisome proliferator-activated receptor gamma/Nuclear receptor coactivator 3 (P37231 whole entry): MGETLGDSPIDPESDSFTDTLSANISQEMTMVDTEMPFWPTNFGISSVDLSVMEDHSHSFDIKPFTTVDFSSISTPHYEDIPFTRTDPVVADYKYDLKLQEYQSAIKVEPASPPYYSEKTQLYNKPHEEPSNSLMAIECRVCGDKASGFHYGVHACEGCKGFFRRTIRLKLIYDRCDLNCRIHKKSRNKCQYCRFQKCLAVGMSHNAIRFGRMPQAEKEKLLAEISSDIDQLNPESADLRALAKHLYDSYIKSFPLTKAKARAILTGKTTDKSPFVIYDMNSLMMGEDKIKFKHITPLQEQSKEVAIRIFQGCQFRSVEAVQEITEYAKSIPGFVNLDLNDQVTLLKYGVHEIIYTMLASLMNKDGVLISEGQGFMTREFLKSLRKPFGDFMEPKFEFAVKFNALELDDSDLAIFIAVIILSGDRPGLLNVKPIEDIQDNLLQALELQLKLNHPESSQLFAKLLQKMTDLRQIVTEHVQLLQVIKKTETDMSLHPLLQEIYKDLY
Chain of Peroxisome proliferator-activated receptor gamma/Nuclear receptor coactivator 3 (Q9Y6Q9 whole entry, further chain): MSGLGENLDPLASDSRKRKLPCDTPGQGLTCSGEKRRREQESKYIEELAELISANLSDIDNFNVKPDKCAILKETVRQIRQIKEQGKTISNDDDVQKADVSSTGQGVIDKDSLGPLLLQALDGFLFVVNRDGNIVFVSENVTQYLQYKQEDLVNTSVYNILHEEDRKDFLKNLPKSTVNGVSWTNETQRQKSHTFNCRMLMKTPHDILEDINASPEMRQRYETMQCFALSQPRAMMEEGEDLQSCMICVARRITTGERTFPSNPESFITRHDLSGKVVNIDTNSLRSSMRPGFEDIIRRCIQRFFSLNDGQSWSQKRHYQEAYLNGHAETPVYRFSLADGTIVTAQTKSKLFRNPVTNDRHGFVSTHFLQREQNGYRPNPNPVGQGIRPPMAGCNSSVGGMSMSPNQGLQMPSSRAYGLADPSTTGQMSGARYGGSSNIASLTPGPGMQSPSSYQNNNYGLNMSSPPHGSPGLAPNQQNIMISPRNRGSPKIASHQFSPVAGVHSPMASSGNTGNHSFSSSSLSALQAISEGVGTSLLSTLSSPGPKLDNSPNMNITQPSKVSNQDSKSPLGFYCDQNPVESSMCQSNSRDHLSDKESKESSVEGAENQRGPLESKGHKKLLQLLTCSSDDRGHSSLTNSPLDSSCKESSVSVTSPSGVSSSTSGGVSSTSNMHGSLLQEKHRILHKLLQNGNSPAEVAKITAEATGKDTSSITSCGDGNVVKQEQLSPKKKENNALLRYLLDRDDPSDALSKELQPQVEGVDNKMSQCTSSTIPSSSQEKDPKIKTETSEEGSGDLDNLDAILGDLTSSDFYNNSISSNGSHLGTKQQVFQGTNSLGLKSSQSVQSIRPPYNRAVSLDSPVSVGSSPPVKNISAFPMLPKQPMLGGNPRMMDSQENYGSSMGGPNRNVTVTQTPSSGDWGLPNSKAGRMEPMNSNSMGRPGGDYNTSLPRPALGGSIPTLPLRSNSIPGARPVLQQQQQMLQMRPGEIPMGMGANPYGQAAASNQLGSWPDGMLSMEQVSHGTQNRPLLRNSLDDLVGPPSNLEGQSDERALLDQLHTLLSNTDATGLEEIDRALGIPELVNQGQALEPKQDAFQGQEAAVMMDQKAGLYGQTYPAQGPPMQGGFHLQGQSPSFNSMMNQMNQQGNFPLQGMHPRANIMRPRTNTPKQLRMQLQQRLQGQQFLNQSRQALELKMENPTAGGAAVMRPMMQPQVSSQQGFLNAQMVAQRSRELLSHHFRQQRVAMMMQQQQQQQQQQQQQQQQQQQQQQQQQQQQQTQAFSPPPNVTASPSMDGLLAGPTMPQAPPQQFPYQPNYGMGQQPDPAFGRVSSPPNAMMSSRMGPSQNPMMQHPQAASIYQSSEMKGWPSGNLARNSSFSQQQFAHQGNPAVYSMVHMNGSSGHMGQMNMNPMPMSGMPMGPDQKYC

[13] = target: T2, Zinc finger protein mex-5 (Caenorhabditis elegans, UniProt Q9XUB2); assay: potency of MEX-5 RNA-binding blockers – biochemical, C. elegans, fluorescence polarization, dose response (AID 1960)
T2 sequence (Q9XUB2 whole entry): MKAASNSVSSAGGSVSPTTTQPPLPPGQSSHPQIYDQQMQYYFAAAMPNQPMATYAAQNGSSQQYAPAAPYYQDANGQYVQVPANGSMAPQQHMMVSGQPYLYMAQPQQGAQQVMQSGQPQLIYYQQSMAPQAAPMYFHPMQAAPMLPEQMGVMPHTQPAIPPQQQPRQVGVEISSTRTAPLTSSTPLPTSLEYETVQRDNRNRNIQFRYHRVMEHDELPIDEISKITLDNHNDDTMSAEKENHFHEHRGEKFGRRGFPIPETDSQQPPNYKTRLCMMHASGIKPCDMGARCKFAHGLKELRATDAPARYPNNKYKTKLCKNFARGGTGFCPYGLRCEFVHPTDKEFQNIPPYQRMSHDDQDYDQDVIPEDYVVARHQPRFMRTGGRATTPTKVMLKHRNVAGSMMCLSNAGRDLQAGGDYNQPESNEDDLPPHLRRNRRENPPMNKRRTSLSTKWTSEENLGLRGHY

14-3-3 protein gamma = 14-3-3 protein gamma (Homo sapiens, UniProt P61981); assay: modulators of 14-3-3 gamma client binding – dose response (AID 711); format: functional
Chain of 14-3-3 protein gamma (P61981 whole entry): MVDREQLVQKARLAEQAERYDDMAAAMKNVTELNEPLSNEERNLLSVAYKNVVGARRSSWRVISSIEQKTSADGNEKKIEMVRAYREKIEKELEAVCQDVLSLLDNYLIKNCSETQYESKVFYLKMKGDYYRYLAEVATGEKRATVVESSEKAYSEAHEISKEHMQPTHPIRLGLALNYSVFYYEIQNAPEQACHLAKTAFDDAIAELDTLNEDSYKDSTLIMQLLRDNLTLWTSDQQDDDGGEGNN

[14] = target: Peroxisome proliferator-activated receptor gamma/Nuclear receptor coactivator 2 (Homo sapiens, UniProt P37231); assay: TR-FRET dose response biochemical High Throughput Screening assay for agonists of the steroid receptor coactivator 2 (SRC-2) recruitment by the peroxisome proliferator-activated receptor gamma (PPAR gamma): non-selective agonists. [Related pubchem assays: 1297, 1032 ]; format: functional
[15] = target: Mitogen-activated protein kinase 10 (Homo sapiens, UniProt P53779); assay: Dose response biochemical screening assay for inhibitors of c-Jun N-Terminal Kinase 3 (JNK3). [Related pubchem assays: 746 ]
Chain of Mitogen-activated protein kinase 10 (P53779 whole entry): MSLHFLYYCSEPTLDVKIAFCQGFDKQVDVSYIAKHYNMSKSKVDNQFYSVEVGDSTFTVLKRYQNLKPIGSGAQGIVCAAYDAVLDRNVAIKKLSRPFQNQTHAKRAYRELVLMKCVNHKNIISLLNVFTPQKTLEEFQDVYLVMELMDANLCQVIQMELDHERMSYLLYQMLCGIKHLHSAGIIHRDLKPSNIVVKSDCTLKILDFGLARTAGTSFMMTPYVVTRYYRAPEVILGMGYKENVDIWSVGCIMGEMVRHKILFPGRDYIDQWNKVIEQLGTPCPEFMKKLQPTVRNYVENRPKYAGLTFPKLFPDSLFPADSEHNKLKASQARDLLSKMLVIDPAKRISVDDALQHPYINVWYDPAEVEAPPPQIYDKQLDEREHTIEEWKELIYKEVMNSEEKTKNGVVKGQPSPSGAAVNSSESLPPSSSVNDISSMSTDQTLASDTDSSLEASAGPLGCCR

HeLa = assay: viability loss in HeLa cells – cell-based, 24 h, cherry-picked samples, cytotoxicity control, dose response (AID 504726); format: functional; conditions: Homo sapiens;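 further: potency for cytotoxicity as loss of luminescence signal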
ORF 73 = target: T3, ORF 73 (Human herpesvirus 8, UniProt O40947); assay: KSHV LANA DNA-binding disruption – biochemical, fluorescence polarization, cherry-picked samples, dose response (AID 504725); design: species or system Human gammaherpesvirus 8;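 further: fluorescence polarization of a labeled DNA duplex reporting LANA DNA binding; potency is for inhibitors that block LANA binding to the DNA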
T3 sequence (O40947 whole entry): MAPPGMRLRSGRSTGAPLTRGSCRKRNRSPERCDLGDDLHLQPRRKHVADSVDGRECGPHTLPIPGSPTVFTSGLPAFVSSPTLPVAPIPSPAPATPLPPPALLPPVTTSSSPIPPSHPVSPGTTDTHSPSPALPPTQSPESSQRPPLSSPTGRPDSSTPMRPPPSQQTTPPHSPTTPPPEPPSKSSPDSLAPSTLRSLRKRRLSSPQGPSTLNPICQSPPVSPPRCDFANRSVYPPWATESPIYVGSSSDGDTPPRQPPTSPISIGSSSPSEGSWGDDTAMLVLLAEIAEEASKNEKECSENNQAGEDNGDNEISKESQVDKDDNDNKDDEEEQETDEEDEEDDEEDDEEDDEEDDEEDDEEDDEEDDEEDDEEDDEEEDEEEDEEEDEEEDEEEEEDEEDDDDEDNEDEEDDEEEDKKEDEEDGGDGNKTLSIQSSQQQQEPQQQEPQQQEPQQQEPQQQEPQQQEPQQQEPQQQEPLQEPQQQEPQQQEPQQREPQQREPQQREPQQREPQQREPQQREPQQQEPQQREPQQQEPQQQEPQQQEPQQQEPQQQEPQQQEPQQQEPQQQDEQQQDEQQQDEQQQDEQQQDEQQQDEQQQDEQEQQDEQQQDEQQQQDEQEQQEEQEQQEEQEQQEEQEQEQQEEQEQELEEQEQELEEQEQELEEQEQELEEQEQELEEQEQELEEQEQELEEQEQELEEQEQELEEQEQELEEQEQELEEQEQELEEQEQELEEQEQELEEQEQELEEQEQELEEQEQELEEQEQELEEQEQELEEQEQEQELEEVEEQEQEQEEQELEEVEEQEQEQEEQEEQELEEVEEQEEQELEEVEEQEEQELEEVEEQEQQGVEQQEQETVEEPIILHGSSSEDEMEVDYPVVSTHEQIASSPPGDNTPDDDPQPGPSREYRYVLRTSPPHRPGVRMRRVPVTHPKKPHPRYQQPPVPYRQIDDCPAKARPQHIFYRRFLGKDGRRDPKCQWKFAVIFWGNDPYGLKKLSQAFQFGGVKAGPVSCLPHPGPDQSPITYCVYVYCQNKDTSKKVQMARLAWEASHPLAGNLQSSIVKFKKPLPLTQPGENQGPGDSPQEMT

[16] = target: UDP-galactopyranose mutase (Mycobacterium tuberculosis, UniProt P9WIQ1); assay: Inhibitors of Mycobacterium tuberculosis UDP-galactopyranose mutase (UGM) enzyme Measured in Biochemical System Using Plate Reader - 2105-02_Inhibitor_Dose_CherryPick_Activity. [Related pubchem assays (depositor defined):AID504439]
Chain of UDP-galactopyranose mutase (P9WIQ1 whole entry): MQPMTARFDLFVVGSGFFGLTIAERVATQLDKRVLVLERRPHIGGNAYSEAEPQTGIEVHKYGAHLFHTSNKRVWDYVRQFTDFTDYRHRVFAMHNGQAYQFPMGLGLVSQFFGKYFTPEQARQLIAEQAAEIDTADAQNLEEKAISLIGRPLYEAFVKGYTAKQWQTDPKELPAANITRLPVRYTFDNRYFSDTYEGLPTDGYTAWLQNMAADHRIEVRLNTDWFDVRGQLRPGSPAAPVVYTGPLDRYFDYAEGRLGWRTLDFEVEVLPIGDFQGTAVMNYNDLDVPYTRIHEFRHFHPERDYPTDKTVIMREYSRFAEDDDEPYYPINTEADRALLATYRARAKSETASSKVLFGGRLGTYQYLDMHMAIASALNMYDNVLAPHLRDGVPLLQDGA

Keap1/Nrf2 = Keap1/Nrf2 (Homo sapiens, UniProt Q14145); assay: disruptors of Keap1 binding to Nrf2 peptide – biochemical, fluorescence polarization, cherry-picked samples, dose response (AID 588683)
Chain of Keap1/Nrf2 (Q16236 whole entry): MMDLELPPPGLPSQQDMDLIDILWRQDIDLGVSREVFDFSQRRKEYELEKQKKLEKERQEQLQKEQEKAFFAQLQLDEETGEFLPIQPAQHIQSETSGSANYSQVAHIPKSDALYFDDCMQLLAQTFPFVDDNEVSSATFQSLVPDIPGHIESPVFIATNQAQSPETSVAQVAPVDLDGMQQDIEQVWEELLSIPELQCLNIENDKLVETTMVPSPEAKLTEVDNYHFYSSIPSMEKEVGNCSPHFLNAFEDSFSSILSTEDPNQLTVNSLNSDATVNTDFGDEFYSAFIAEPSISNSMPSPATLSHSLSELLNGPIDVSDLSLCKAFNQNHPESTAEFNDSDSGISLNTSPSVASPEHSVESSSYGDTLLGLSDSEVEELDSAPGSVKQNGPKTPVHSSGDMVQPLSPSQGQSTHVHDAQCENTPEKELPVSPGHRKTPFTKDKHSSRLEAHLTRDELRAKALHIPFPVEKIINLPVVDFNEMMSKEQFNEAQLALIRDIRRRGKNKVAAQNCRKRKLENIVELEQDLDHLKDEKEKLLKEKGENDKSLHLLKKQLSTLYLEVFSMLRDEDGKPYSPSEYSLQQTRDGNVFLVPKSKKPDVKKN
Chain of Keap1/Nrf2 (Q14145 whole entry): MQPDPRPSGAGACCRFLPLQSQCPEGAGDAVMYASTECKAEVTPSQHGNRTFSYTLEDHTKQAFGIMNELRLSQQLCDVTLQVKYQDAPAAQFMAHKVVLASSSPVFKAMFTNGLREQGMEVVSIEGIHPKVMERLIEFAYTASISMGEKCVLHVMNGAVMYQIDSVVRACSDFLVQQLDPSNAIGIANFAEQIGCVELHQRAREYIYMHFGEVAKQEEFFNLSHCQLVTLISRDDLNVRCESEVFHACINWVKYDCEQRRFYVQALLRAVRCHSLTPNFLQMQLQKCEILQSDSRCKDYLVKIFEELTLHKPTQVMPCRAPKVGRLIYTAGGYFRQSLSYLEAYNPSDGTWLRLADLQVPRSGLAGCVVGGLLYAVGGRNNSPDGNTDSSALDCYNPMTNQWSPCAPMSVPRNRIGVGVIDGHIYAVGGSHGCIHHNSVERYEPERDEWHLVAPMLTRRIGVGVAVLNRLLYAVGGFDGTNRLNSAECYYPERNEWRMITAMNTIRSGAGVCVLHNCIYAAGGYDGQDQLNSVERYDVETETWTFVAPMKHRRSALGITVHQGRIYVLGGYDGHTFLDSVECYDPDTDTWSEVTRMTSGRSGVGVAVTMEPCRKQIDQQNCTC

Bcl-2-related protein A1 [17] = target: T4, Bcl-2-related protein A1 (Mus musculus, UniProt Q07440); assay: small-molecule antagonists of Bfl-1/BH3 interaction – biochemical, TR-FRET, mouse Bfl-1, confirmation (AID 621);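 further: TR-FRET binding of GST-Bfl-1 to FITC-labelled Bid peptide via terbium antibody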
T4 sequence (Q07440 whole entry): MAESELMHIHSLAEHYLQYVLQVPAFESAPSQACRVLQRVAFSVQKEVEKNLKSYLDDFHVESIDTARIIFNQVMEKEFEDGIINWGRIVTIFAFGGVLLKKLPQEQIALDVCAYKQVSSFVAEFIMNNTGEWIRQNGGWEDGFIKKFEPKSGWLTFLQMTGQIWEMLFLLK

Bcl-2-related protein A1 [18] = target: T4, Bcl-2-related protein A1; assay: Bfl-1 binding inhibitors, SAR follow-up, biochemical, fluorescence polarization (AID 1070)
Vero [19] = assay: mammalian cell viability reduction – secondary assay, cytotoxicity control for West Nile virus antiviral project, dose response (AID 1650); format: functional; conditions: Chlorocebus sabaeus
[20] = target: T5, Heat shock factor protein 1 (Mus musculus, UniProt P38532); assay: enhancement of HSF1-driven luciferase signal – cell-based, NIH3T3, luminescence, dose retest, confirmation (AID 435004); format: functional;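 further: stress induced by proteasome inhibitor MG132 added 30 min after compound; luciferase reporter driven by HSF1 response element in NIH3T3 cells; actives raise luminescence as potentiators of the MG132 stress response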
T5 sequence (P38532 whole entry): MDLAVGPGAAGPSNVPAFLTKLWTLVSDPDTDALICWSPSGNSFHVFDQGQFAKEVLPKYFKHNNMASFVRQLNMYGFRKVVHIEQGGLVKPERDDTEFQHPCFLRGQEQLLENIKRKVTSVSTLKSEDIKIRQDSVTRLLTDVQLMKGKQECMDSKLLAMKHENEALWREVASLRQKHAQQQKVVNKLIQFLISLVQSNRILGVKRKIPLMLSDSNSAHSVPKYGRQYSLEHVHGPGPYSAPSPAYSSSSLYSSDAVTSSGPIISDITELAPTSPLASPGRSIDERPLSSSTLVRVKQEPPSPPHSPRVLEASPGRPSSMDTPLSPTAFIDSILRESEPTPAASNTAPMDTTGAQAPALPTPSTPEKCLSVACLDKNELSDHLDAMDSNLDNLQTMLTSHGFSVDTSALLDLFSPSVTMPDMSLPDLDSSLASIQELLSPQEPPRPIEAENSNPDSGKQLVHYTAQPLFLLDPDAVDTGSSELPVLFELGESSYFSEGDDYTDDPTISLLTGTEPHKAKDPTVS

INS1 = assay: INS-1E survival protection against cytokine death – cell-based, luminescence, retest, dose response (AID 449756); format: functional; conditions: Rattus norvegicus;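 further: cell death triggered by IL-1 beta plus TNF-alpha plus IFN-gamma mixture; protective hits raise ATP signal compared with cytokine alone wells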
[21] = reduction of Shn3 3'UTR-driven luciferase in osteoblasts – cell-based, Clone20 osteoblasts, firefly luciferase, cherry-picked, dose response (AID 624132); format: functional;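 further: firefly luciferase luminescence from reporter carrying the Shn3 3'UTR in osteoblasts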
[22] = loss of viability in HepG2 cells – cell-based, CellTiter-Glo, cherry-picked, cytotoxicity control for Shn3 inhibitor project, dose response (AID 624134); format: functional
[23] = non-specific 3'UTR reporter inhibition in Clone20-Shn3RL – cell-based, Renilla luciferase, cherry-picked, counter-screen for Shn3 inhibitor project, dose response (AID 624133); format: functional
Interleukin-8 [24] = target: T6, Interleukin-8 (Homo sapiens, UniProt P10145); assay: Dose Response confirmation of uHTS small molecule hits for cystic fibrosis induced NFkb Inhibitors in a TNFa-induced IL8 counterscreen.; format: functional; conditions: read-out: IC50_Mean
T6 sequence (P10145 whole entry): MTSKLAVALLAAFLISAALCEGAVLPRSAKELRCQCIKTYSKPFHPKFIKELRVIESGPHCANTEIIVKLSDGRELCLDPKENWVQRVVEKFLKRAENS

Interleukin-8 [25] = target: T6, Interleukin-8; assay: Dose Response confirmation of uHTS small molecule hits for cystic fibrosis induced NFkb Inhibitors in a PAF-induced IL8 counterscreen.; format: functional; conditions: read-out: IC50_Mean
Danio rerio = assay: In Vivo Angiogenesis Dose-Response Confirmation. [Related pubchem assays: 732 (Assay preceding this confirmatory assay.)]; format: functional, organism-based

Chain of Diphosphomevalonate decarboxylase (Q9FD53 whole entry): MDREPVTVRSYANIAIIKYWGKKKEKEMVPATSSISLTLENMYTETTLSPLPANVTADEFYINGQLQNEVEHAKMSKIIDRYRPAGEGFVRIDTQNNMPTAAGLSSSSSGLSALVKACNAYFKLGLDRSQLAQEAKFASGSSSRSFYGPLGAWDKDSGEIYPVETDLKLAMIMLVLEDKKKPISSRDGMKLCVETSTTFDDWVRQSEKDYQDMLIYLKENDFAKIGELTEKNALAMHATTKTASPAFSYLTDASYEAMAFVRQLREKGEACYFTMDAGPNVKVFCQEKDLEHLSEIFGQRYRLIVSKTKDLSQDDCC

O=C(c1ccc(-n2sc3ccccc3c2=O)cc1)N1CCCCC1
IC50 [1]: 14.3 µM (active)

COc1cc(CNC(C)(C)CO)cc(Br)c1OCc1ccc(Cl)cc1
IC50 (Vero [2]): 19.1 µM (active)

O=C(NNC(=O)c1cc2ccccc2cc1O)c1cccs1
EC50 [3]: > 150 µM (inactive)
EC50 [4]: 9.37 µM (active)
EC50 [5]: < 0.1 µM (active)
EC50 (H4): > 120 µM (not active)
EC50 [6]: > 38 µM (not active)
EC50 [7]: 1.47 µM (active)
EC50 [8]: 1.87 µM (active)
CC50 (Vero [9]): > 40 µM (active)

O=C1c2ccccc2-c2onc3ccc(NCc4ccco4)c1c23
EC50 [10]: 0.173 µM (inconclusive)
EC50 [11]: > 79.4 µM (inactive)
EC50 [12]: > 79.4 µM (not active)
EC50 [13]: < 0.06 µM (inconclusive)
IC50 (14-3-3 protein gamma): < 44 µM (inconclusive)
EC50 [14]: 24.3 µM (not active)
IC50 [15]: 24 µM (not active)
AC50 (HeLa): 17.1 µM (active)
AC50 (ORF 73): 7.42 µM (active)
AC50 [16]: 1.2 µM (active)
AC50 (Keap1/Nrf2): 1.26 µM (active)

COc1ccc2nc(O)c(-c3nnn(-c4ccccc4)n3)cc2c1
IC50 (Bcl-2-related protein A1 [17]): > 100 µM (not active)
IC50 (Bcl-2-related protein A1 [18]): > 100 µM (not active)

COc1ccc2c(c1OC)C(=O)OC2Nc1nc(-c2ccccc2)cs1 (configuration not stated)
CC50 (Vero [19]): 9.86 µM (active)
EC50 [20]: 13.6 µM (active)
AC50 (INS1): 17.6 µM (active)
AC50 [21]: 4.7 µM (active)
AC50 [22]: 58.8 µM (active)
AC50 [23]: 17.7 µM (active)
IC50 (Interleukin-8 [24]): 39.9 µM (inactive)
IC50 (Interleukin-8 [25]): 0.697 µM (active)

O=C1Nc2ccccc2/C1=C1/Nc2ccccc2C1=O [INDIRUBIN]
IC50 (Danio rerio): < 0.1 µM (not active)
